Test results taken from ChEMBL document CHEMBL5518250, “Targeting KRAS Diversity: Covalent Modulation of G12X and Beyond in Cancer Therapy” (J Med Chem, 2024).

Assay: Binding affinity to human recombinant His-tagged KRAS G12C/C118S mutant (1 to 169 residues) expressed in Escherichia coli assessed as inhibition constant by fluorescence based analysis

Compound `C=CC(=O)N1CCN(c2nc(=O)n(-c3c(C)ccnc3C(C)C)c3nc(-c4c(O)cccc4F)c(F)cc23)[C@@H](C)C1` [SOTORASIB] has a Ki of 86 µM.
